Laboratory results taken from US20120083460A1 (SAN EI GEN F.F.I., INC., priority 2009, published 2012).
Values joined by “and” are separate entries in the source; they are usually repeats but may differ in a detail not shown here. Identical values can stand only once. Like-named read-outs stand apart in the source and are kept apart here.

What was measured:
[1] = Evaluation of IQC composition solubility in water (Experiment Example 1); assay type: physicochemical; conditions: for Solubility (in terms of isoquercitrin, mg/ml): water, shaken at 25° C. for 40 hours, solution pH 4.7-5.7 (Table 1)
Method: The Samples were added until they could not be dissolved further and formed deposits. Each solution was shaken at 25° C. for 40 hours, and centrifuged at 9,000 rpm for 10 min to collect the supernatant. The supernatant was appropriately diluted with a 0.1% phosphoric acid aqueous solution, and absorbance (340 nm) was measured.

[2] = Evaluation of water solubility with α- and β-cyclodextrins (Reference Experiment Example); assay type: physicochemical; conditions: water (25° C.), method of Experiment Example 1
[3] = Evaluation of the solubility of other flavonoids in water (Experiment Example 2); assay type: physicochemical
Method: The solubility (mg/ml) of each composition in water in terms of the flavonoid was then determined according to the method of Experiment Example 1. The solubility (mg/ml) of the flavonoid itself in water was also determined as a control, and the solubility (fold) was calculated from the relative ratio of the two.

[4] = Evaluation of preservation stability (presence or absence of deposits) in acid and sugar solution (Experiment Example 3); assay type: physicochemical; design: key: +: the presence of deposits; −: the absence of deposits; ×: no dissolution in the acid and sugar solution; conditions: 30 days
Method: Each solution was hot-packed in a 200-ml PET bottle (93° C.). The drink so prepared was allowed to cool, and placed under 50° C., room temperature (25±2° C.), and low-temperature (5° C.) conditions for 30 days. The presence or absence of deposits was then checked by visual inspection.
The drink so prepared was allowed to cool, and placed under 50° C., room temperature (25±2° C.), and low-temperature (5° C.) conditions for 30 days. The presence or absence of deposits was then observed.
In the table, the symbol “+” means the presence of deposits, and “−” the absence of deposits. The symbol “×” means no dissolution in the acid and sugar solution.

[5] = Evaluation of fading suppressing effect, fluorescent light irradiation (Experiment Example 4); conditions: final IQC 0.01% (γ-CD alone 0.14%), drink pH 3.1
Method: (§1) Specifically, a colorant-containing acidic drink of the formulation below was prepared. […] The drinks were irradiated with a fluorescent light (BIOTRON LH 300, NK System) or a UV Fade Meter (UV Long-Life Fade Meter FAL-3, Suga Test Instruments Co., Ltd.) for the durations presented in Table 6. Absorbance was measured before and after the irradiation, and the percentage remaining color (%) after the irradiation was calculated. Further, as a control test, a colorant-containing acidic drink was irradiated with the UV Fade Meter or fluorescent light as above without adding anything (no addition), and the percentage remaining color (%) after the irradiation was calculated.

[6] = Evaluation of fading suppressing effect, UV Fade Meter irradiation (Experiment Example 4); conditions: final IQC 0.01% (γ-CD alone 0.14%), drink pH 3.1
Method: as §1

[7] = Evaluation of flavor deterioration suppressing effect, sensory evaluation by six panelists (Experiment Example 5); conditions: drinks of formulations 1 to 7, IQC added as it is, final IQC 0.01%
Method: In the same manner, γ-CD (Wacker Chemical) was added to each drink in a final concentration of 0.14% to prepare a drink that contained γ-CD.
The drinks prepared as above were tested under the severity conditions presented in Table 9, and changes in drink flavor after the test were examined by six panelists in a sensory evaluation. Evaluations were made according to the following criteria on the scale of 1 (stress tested drink (blank) without any addition) to 5 (each drink before the test).
Table 9 presents means values of the scored points evaluated by the six panelists.

[8] = Absorption in the body: IQC metabolites in plasma after oral administration (Experiment Example 6); assay type: in vivo; conditions: 375 mg IQC equivalent, person n=1
Method: After 1, 2, and 3 hours from the administration, bloods were collected using heparin as anti-coagulant from the person, and centrifuged to obtain plasmas.
About 29,000 unit/ml β-glucuronidase (20 μl) dissolved in 0.58 M sodium acetate buffer (pH 4.9) was added to the plasma (180 μl), and the mixture was left unattended at 37° C. for 30 min. After adding 1 M AsA/10 mM sodium metaphosphate (50 μl, in terms of phosphoric acid) and 20 μg/ml diosmetin (9 μl), the mixture was frozen at −80° C., and freeze dried overnight. The freeze dried sample was suspended in MeOH (1 ml), and centrifuged at 15,000 rpm for 10 min. The supernatant was concentrated and dried, and dissolved in MeOH (90 μl). After adding 200 mM HCl (90 μl), the solution was centrifuged at 15,000 rpm for 10 min to collect the supernatant. The IQC metabolites quercetin, isorhamnetin, and tamarixetin in the plasma were then quantified by HPLC under the conditions below.

[9] = Cochineal colorant, fluorescence irradiation 6 D
[10] = Elderberry colorant, fluorescence irradiation 2 D
[11] = Grape juice colorant, fluorescence irradiation 20 D
[12] = Paprika colorant, fluorescence irradiation 1 D
[13] = Purple corn colorant, fluorescence irradiation 1 D
[14] = Purple sweet potato colorant, fluorescence irradiation 8 D
[15] = Red cabbage colorant, fluorescence irradiation 4 D
[16] = Safflower yellow colorant, fluorescence irradiation 4 D
[17] = β-carotene, fluorescence irradiation 6 D
[18] = Cochineal colorant, UV fade meter irradiation 6 H
[19] = Elderberry colorant, UV fade meter irradiation 2 H
[20] = Grape juice colorant, UV fade meter irradiation 20 H
[21] = Paprika colorant, UV fade meter irradiation 3 H
[22] = Purple corn colorant, UV fade meter irradiation 4 H
[23] = Purple sweet potato colorant, UV fade meter irradiation 7 H
[24] = Red cabbage colorant, UV fade meter irradiation 8 H
[25] = Safflower yellow colorant, UV fade meter irradiation 4 H
[26] = β-carotene, UV fade meter irradiation 17 H

O=c1c(O[C@@H]2O[C@H](CO)[C@@H](O)[C@H](O)[C@H]2O)c(-c2ccc(O)c(O)c2)oc2cc(O)cc(O)c12 [IQC, isoquercitrin]
upper limit solubility in water ([1]; acidic condition at 25° C.): 0.0102 mass %
Solubility (in terms of isoquercitrin, mg/ml) [1]: 0.1020 mg/mL
Solubility (in terms of isoquercitrin, mg/ml) ([1]; listed as Control): 0.10 mg/mL
Solubility (in terms of isoquercitrin, mg/ml) ([1]; listed as isoquercitrin): 0.102 mg/mL
Solubility (in terms of isoquercitrin, mg/ml) [2]: 0.10 mg/mL
Solubility (fold) (in terms of flavonoids) ([3]; Flavonoid:γ-CD = 1:0 (mole ratio), flavonoid itself = reference 1): 1 fold
presence or absence of deposits ([4]; pH 6, 50° C., flavonoid concentration 0.05%): −
presence or absence of deposits ([4]; pH 6, Refrigerated (5° C.), flavonoid concentration 0.05%): +
presence or absence of deposits ([4]; pH 6, Room temperature, flavonoid concentration 0.05%): +
presence or absence of deposits ([4]; pH 9, 50° C., flavonoid concentration 0.05%): −
presence or absence of deposits ([4]; pH 9, 50° C., flavonoid concentration 0.10%): −
presence or absence of deposits ([4]; pH 9, Refrigerated (5° C.), flavonoid concentration 0.05%): +
presence or absence of deposits ([4]; pH 9, Refrigerated (5° C.), flavonoid concentration 0.10%): +
presence or absence of deposits ([4]; pH 9, Room temperature, flavonoid concentration 0.05%): −
presence or absence of deposits ([4]; pH 9, Room temperature, flavonoid concentration 0.10%): +
percentage remaining color (%) [5, 9]: 75.6%
percentage remaining color (%) [5, 10]: 64.5%
percentage remaining color (%) [5, 11]: 91.1%
percentage remaining color (%) [5, 12]: 91.3%
percentage remaining color (%) [5, 13]: 76.4%
percentage remaining color (%) [5, 14]: 76.9%
percentage remaining color (%) [5, 15]: 60.1%
percentage remaining color (%) [5, 16]: 72.8%
percentage remaining color (%) [5, 17]: 71.2%
percentage remaining color (%) [6, 18]: 91.1%
percentage remaining color (%) [6, 19]: 70.2%
percentage remaining color (%) [6, 20]: 93.1%
percentage remaining color (%) [6, 21]: 55.8%
percentage remaining color (%) [6, 22]: 59.8%
percentage remaining color (%) [6, 23]: 88.0%
percentage remaining color (%) [6, 24]: 50.8%
percentage remaining color (%) [6, 25]: 71.6%
percentage remaining color (%) [6, 26]: 74.2%
IQC deposits in the prepared drink [7]: deposits were observed within several hours
Isorhamnetin in plasma ([8]; blood collection time 0 h): 0 µg/mL
Quercetin in plasma ([8]; blood collection time 0 h): 0.02 µg/mL
Tamarixetin in plasma ([8]; blood collection time 0 h): 0 µg/mL
Total flavonoid (quercetin, isorhamnetin, tamarixetin) in plasma ([8]; blood collection time 0 h): 0.02 µg/mL
Isorhamnetin in plasma ([8]; blood collection time 1 h): 0 µg/mL
Quercetin in plasma ([8]; blood collection time 1 h): 0.01 µg/mL
Tamarixetin in plasma ([8]; blood collection time 1 h): 0 µg/mL
Total flavonoid (quercetin, isorhamnetin, tamarixetin) in plasma ([8]; blood collection time 1 h): 0.01 µg/mL
Isorhamnetin in plasma ([8]; blood collection time 2 h): 0.02 µg/mL
Quercetin in plasma ([8]; blood collection time 2 h): 0.15 µg/mL
Tamarixetin in plasma ([8]; blood collection time 2 h): 0.06 µg/mL
Total flavonoid (quercetin, isorhamnetin, tamarixetin) in plasma ([8]; blood collection time 2 h): 0.2 µg/mL and 0.22 µg/mL
Isorhamnetin in plasma ([8]; blood collection time 3 h): 0.01 µg/mL
Quercetin in plasma ([8]; blood collection time 3 h): 0.15 µg/mL
Tamarixetin in plasma ([8]; blood collection time 3 h): 0.03 µg/mL
Total flavonoid (quercetin, isorhamnetin, tamarixetin) in plasma ([8]; blood collection time 3 h): 0.20 µg/mL
AUC ([8]; total metabolites in plasma, 0-3 h): 0.34 (μg/ml)·hr

O=c1c(O)c(-c2cc(O)c(O)c(O)c2)oc2cc(O)cc(O)c12 [Myricetin, myricetin]
Solubility (fold) (in terms of flavonoids) [3]: 1 fold

C[C@@H]1O[C@@H](O[C@H]2[C@H](Oc3cc(O)c4c(c3)O[C@H](c3ccc(O)cc3)CC4=O)O[C@H](CO)[C@@H](O)[C@@H]2O)[C@H](O)[C@H](O)[C@H]1O [Naringin, naringin]
Solubility (fold) (in terms of flavonoids) [3]: 1 fold

O=c1c(O)c(-c2ccc(O)c(O)c2)oc2cc(O)cc(O)c12 [Quercetin, quercetin]
Solubility (fold) (in terms of flavonoids) [3]: 1 fold

OC[C@H]1O[C@@H]2O[C@H]3[C@H](O)[C@@H](O)[C@@H](O[C@H]4[C@H](O)[C@@H](O)[C@@H](O[C@H]5[C@H](O)[C@@H](O)[C@@H](O[C@H]6[C@H](O)[C@@H](O)[C@@H](O[C@H]7[C@H](O)[C@@H](O)[C@@H](O[C@H]8[C@H](O)[C@@H](O)[C@@H](O[C@H]9[C@H](O)[C@@H](O)[C@@H](O[C@H]1[C@H](O)[C@H]2O)O[C@@H]9CO)O[C@@H]8CO)O[C@@H]7CO)O[C@@H]6CO)O[C@@H]5CO)O[C@@H]4CO)O[C@@H]3CO [γ-CD, γ-cyclodextrin]
percentage remaining color (%) [5, 9]: 71.5%
percentage remaining color (%) [5, 10]: 66.2%
percentage remaining color (%) [5, 11]: 88.1%
percentage remaining color (%) [5, 12]: 90.3%
percentage remaining color (%) [5, 13]: 69.2%
percentage remaining color (%) [5, 14]: 75.6%
percentage remaining color (%) [5, 15]: 54.0%
percentage remaining color (%) [5, 16]: 69.2%
percentage remaining color (%) [5, 17]: 60.6%
percentage remaining color (%) [6, 18]: 80.8%
percentage remaining color (%) [6, 19]: 65.2%
percentage remaining color (%) [6, 20]: 88.7%
percentage remaining color (%) [6, 21]: 37.6%
percentage remaining color (%) [6, 22]: 36.2%
percentage remaining color (%) [6, 23]: 79.4%
percentage remaining color (%) [6, 24]: 25.1%
percentage remaining color (%) [6, 25]: 62.4%
percentage remaining color (%) [6, 26]: 60.5%
